Active and inactive are the calls of the source. The calls are words filed in the database; no cut-off is given here.
Legend:
Histone deacetylase 1 = Histone deacetylase 1 (Homo sapiens, UniProt Q13547); experiment: Inhibition of HDAC1 (unknown origin) expressed in baculovirus infected in Sf9 cells using RHKKAc as substrate at 500 nM preincubated for 5 to 10 mins followed by substrate addition measured after 2 hrs by fluorescence based assay relative to control; details: time 5-130 min
HOP-62 = experiment: Antiproliferative activity against human HOP-62 cells assessed as cell growth inhibition incubated for 72 hrs by alamar blue dye based assay; type: functional
COLO 205 = experiment: Antiproliferative activity against human COLO 205 cells assessed as cell growth inhibition incubated for 72 hrs by alamar blue dye based assay; type: functional
HCT-116 = experiment: Antiproliferative activity against human HCT-116 cells assessed as cell growth inhibition incubated for 72 hrs by alamar blue dye based assay; type: functional
HCT-15 = experiment: Antiproliferative activity against human HCT-15 cells assessed as cell growth inhibition incubated for 72 hrs by alamar blue dye based assay; type: functional
HT-29 = experiment: Antiproliferative activity against human HT-29 cells assessed as cell growth inhibition incubated for 72 hrs by alamar blue dye based assay; type: functional
SNB-75 = experiment: Antiproliferative activity against human SNB-75 cells assessed as cell growth inhibition incubated for 72 hrs by alamar blue dye based assay; type: functional
UACC-257 = experiment: Antiproliferative activity against human UACC-257 cells assessed as cell growth inhibition incubated for 72 hrs by alamar blue dye based assay; type: functional
OVCAR-4 = experiment: Antiproliferative activity against human OVCAR-4 cells assessed as cell growth inhibition incubated for 72 hrs by alamar blue dye based assay; type: functional
OVCAR-5 = experiment: Antiproliferative activity against human OVCAR-5 cells assessed as cell growth inhibition incubated for 72 hrs by alamar blue dye based assay; type: functional
OVCAR-8 = experiment: Antiproliferative activity against human OVCAR-8 cells assessed as cell growth inhibition incubated for 72 hrs by alamar blue dye based assay; type: functional
NCI/ADR-RES = experiment: Antiproliferative activity against human NCI-ADR-RES cells assessed as cell growth inhibition incubated for 72 hrs by alamar blue dye based assay; type: functional
SK-OV-3 = experiment: Antiproliferative activity against human SK-OV-3 cells assessed as cell growth inhibition incubated for 72 hrs by alamar blue dye based assay; type: functional
CAKI-1 = experiment: Antiproliferative activity against human CAKI-1 cells assessed as cell growth inhibition incubated for 72 hrs by alamar blue dye based assay; type: functional
RXF 393 = experiment: Antiproliferative activity against human RXF 393 cells assessed as cell growth inhibition incubated for 72 hrs by alamar blue dye based assay; type: functional
TK-10 = experiment: Antiproliferative activity against human TK-10 cells assessed as cell growth inhibition incubated for 72 hrs by alamar blue dye based assay; type: functional
[1] = target: Polyamine deacetylase HDAC10 (Homo sapiens, UniProt Q969S8); experiment: Inhibition of HDAC10 (unknown origin) TR-FRET assay; set-up: species or system Sf9
Chain of Polyamine deacetylase HDAC10 (Q969S8 whole entry): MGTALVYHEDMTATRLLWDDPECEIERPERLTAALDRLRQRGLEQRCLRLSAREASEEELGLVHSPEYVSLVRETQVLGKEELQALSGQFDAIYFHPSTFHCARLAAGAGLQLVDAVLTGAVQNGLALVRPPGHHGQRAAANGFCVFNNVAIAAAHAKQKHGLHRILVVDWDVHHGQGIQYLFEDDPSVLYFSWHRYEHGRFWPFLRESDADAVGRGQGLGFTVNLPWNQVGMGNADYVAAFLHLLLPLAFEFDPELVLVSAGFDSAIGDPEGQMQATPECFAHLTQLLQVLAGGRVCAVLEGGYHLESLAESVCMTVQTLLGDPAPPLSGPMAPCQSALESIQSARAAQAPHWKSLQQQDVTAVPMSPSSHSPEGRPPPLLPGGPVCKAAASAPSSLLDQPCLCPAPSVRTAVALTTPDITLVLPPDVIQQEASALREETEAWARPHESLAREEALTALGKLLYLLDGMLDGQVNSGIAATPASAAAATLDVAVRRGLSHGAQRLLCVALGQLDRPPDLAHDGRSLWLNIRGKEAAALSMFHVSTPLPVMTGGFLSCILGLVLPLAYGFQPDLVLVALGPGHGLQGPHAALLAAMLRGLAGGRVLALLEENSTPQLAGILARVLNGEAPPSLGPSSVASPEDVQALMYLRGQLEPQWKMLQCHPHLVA

[2] = target: T1, Protein deacetylase HDAC6 (Homo sapiens, UniProt Q9UBN7); experiment: Inhibition of HDAC6 (unknown origin) expressed in baculovirus infected in Sf9 cells using RHKKAc as substrate preincubated for 5 to 10 mins followed by substrate addition measured after 2 hrs by fluorescence based assay
T1 sequence (Q9UBN7 whole entry): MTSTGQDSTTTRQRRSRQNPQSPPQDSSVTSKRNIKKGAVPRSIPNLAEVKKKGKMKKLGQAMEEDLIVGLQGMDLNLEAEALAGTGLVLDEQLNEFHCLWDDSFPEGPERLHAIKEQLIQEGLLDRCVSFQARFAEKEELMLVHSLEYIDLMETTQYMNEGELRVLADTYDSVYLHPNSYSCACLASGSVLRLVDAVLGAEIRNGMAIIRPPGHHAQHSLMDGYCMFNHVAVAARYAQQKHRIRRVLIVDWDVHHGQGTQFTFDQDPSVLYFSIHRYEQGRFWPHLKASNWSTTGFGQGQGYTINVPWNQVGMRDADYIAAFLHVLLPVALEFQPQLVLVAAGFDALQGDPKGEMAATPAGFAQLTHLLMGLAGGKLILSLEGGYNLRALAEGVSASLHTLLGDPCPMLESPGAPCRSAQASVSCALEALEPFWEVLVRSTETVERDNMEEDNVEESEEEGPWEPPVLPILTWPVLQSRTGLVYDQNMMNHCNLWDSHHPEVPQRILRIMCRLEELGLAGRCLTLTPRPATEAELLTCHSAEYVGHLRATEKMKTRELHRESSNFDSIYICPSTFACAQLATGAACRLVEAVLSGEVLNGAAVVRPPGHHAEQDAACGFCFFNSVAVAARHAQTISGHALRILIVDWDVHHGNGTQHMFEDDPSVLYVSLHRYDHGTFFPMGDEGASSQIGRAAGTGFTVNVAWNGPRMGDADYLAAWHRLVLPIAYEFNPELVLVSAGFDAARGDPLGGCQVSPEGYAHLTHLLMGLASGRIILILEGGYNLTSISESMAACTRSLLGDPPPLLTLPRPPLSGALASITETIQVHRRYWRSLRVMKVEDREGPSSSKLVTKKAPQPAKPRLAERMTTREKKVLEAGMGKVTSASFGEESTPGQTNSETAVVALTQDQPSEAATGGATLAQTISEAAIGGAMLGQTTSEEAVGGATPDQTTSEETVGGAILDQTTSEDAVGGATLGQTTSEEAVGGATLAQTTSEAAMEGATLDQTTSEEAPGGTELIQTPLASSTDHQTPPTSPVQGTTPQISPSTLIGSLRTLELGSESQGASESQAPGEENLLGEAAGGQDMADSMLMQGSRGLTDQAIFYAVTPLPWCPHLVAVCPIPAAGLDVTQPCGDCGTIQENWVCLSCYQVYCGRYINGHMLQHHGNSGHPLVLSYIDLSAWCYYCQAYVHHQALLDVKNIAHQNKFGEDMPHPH

Histone deacetylase 9 = Histone deacetylase 9 (Homo sapiens, UniProt Q9UKV0); experiment: Inhibition of HDAC9 (unknown origin) expressed in baculovirus infected in Sf9 cells using RHKKAc as substrate preincubated for 5 to 10 mins followed by substrate addition measured after 2 hrs by fluorescence based assay
Chain of Histone deacetylase 9 (Q9UKV0 whole entry): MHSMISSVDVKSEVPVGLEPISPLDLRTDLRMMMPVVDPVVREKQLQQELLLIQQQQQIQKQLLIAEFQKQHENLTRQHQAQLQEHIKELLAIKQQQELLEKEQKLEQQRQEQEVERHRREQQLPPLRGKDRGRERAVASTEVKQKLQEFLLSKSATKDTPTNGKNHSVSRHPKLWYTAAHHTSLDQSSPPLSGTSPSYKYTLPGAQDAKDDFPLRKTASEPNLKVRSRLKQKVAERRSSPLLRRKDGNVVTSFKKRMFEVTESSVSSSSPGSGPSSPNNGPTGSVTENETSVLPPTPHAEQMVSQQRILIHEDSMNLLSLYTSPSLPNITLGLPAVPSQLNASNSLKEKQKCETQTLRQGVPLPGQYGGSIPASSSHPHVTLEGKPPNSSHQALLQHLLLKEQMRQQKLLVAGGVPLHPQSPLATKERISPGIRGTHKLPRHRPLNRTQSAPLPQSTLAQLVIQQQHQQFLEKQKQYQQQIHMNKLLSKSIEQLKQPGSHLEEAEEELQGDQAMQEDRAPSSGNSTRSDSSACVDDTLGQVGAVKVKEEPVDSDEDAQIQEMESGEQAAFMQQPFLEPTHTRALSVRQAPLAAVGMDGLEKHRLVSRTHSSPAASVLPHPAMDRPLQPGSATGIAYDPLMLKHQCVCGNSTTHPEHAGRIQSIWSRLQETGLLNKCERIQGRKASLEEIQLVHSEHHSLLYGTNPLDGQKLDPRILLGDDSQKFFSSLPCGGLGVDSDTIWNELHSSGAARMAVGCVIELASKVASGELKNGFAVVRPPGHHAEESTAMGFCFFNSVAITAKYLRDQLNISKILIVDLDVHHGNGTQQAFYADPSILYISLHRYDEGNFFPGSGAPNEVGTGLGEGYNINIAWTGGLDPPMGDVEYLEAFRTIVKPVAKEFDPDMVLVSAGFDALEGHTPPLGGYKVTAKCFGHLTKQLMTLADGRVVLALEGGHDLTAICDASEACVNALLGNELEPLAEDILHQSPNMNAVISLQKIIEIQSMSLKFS

[3] = target: Class 1 histone deacetylase (Homo sapiens) (UniProt Q13547+O15379+Q92769+Q9BY41); experiment: Inhibition of class 1 HDAC in human RPMI-8226 cells assessed as increase in histone H3 acetylation at 1 to 10 uM incubated for 24 hrs by Western blot analysis; type: cell-based; details: dose 1-10 µM
Chain of Class 1 histone deacetylase (Homo sapiens) (O15379 whole entry, looked up): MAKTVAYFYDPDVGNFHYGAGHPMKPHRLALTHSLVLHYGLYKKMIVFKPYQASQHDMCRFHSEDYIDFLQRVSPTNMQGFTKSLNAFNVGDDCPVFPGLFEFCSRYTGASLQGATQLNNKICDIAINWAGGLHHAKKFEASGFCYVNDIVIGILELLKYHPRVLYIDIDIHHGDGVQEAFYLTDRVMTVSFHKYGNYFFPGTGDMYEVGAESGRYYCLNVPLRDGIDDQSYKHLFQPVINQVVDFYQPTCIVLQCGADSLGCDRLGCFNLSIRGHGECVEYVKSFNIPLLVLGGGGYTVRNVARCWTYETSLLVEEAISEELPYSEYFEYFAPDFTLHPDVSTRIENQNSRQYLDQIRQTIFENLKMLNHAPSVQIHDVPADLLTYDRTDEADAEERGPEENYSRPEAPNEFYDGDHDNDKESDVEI
Chain of Class 1 histone deacetylase (Homo sapiens) (Q13547 whole entry, looked up): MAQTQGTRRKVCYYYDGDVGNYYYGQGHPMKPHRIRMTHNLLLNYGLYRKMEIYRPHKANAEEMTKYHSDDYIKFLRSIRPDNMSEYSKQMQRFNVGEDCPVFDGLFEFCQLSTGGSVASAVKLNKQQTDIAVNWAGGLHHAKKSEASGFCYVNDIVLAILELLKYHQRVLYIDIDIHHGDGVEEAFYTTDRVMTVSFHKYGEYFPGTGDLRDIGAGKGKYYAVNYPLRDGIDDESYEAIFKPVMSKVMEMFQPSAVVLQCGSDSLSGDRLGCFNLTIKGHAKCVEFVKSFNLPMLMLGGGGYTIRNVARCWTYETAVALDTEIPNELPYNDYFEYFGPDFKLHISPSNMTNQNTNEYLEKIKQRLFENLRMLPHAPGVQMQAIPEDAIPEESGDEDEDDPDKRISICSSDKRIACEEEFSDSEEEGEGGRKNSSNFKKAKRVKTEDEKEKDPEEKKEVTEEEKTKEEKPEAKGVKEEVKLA
Chain of Class 1 histone deacetylase (Homo sapiens) (Q92769 whole entry, looked up): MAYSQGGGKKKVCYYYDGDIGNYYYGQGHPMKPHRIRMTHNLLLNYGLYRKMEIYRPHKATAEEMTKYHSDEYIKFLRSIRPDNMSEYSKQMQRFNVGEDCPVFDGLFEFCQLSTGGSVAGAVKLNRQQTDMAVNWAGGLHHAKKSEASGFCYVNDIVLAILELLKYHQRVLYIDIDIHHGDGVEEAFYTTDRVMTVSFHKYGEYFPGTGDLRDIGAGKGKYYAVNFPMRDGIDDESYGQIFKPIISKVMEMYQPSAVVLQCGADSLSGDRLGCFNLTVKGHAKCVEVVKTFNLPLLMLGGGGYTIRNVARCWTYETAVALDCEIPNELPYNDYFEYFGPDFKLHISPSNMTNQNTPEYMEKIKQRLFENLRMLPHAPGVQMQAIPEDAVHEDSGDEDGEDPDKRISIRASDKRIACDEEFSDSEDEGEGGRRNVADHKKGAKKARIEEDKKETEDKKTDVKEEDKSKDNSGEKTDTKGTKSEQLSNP
Chain of Class 1 histone deacetylase (Homo sapiens) (Q9BY41 whole entry, looked up): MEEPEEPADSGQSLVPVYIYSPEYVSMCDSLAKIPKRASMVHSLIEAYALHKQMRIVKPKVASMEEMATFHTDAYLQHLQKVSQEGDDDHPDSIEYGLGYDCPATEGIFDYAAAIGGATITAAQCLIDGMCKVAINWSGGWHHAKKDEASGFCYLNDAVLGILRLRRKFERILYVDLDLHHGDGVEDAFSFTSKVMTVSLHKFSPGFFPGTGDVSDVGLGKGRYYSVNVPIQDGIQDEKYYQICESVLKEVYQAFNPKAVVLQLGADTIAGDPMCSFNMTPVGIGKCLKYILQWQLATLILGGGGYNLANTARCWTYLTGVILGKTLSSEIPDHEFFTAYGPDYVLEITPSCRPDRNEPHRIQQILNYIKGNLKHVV

[4] = Cmax in Sprague-Dawley rat at 0.2 mg/kg, iv by LC-MS/MS analysis; type: ADME, organism-based; details: in vivo
[5] = Clearance in Sprague-Dawley rat at 0.2 mg/kg, iv by LC-MS/MS analysis; type: ADME, organism-based; details: in vivo
[6] = AUC (0 to last) in Sprague-Dawley rat at 0.2 mg/kg, iv by LC-MS/MS analysis; type: ADME, organism-based; details: in vivo
[7] = Cmax in Sprague-Dawley rat at 3 mg/kg, po by LC-MS/MS analysis; type: ADME, organism-based; details: in vivo
[8] = AUC (0 to last) in Sprague-Dawley rat at 3 mg/kg, po by LC-MS/MS analysis; type: ADME, organism-based; details: in vivo
[9] = Oral bioavailability in Sprague-Dawley rat at 3 mg/kg by LC-MS/MS analysis; type: ADME, organism-based; details: in vivo

Chain of Histone deacetylase 1 (Q13547 whole entry): as the sequence (Q13547 whole entry, looked up) above

| SMILES | GI50 (HOP-62) [µM] | GI50 (COLO 205) [µM] | GI50 (HCT-116) [µM] | GI50 (HCT-15) [µM] | GI50 (HT-29) [µM] | GI50 (SNB-75) [µM] | GI50 (UACC-257) [µM] | GI50 (OVCAR-4) [µM] | GI50 (OVCAR-5) [µM] | GI50 (OVCAR-8) [µM] | GI50 (NCI/ADR-RES) [µM] | GI50 (SK-OV-3) [µM] | GI50 (CAKI-1) [µM] | GI50 (RXF 393) [µM] | GI50 (TK-10) [µM] | other results |
| --- | --- | --- | --- | --- | --- | --- | --- | --- | --- | --- | --- | --- | --- | --- | --- | --- |
| COc1ccc(CN2[C@@H](C(=O)NCc3ccc(C(=O)NO)cc3)Cc3c([nH]c4ccccc34)[C@@H]2C2CC2)cc1 | 3.48 | 3.47 | 2.08 | 3.75 | 4.84 | 1.13 | 2.39 | 4.74 | 1.87 | 2.56 | 4.05 | 2.87 | 2.4 | 0.797 | 3.17 | inhibition (Histone deacetylase 1): 83.4% |
| O=C(NO)c1ccc(CNC(=O)[C@H]2Cc3c([nH]c4ccccc34)[C@H](c3ccc(Cl)cc3)N2)cc1 | 1.27 | 0.719 | 0.609 | 4.26 | 0.838 | 2.26 | 1.23 | 3.73 | 0.456 | 0.942 | 3.35 | 2.01 | 2.33 | 0.455 | 1.51 | IC50 [1]: 0.496 µM; IC50 [2]: 0.00268 µM; IC50 (Histone deacetylase 9): > 50 µM; inhibition [3]: Active; Cmax [4]: 1.02 µM; clearance [5]: 0.264 L/h/kg; AUC(0-t) [6]: 1.46 µM·h; Cmax [7]: 1.39 µM; AUC(0-t) [8]: 9.6 µM·h; bioavailability [9]: 43.8% |

Source: ChEMBL document CHEMBL5625247, “Tetrahydro-β-carboline derivatives as potent histone deacetylase 6 inhibitors with broad-spectrum antiproliferative activity” (Eur J Med Chem, 2023)
